# Source: ChEMBL document CHEMBL6182925 (J Med Chem, 2025)
# pEC50, pIC50: −log10 of the molar value. “And” between values parts separate entries of the source, which are not always exact repeats. Equal entries are not always repeated. The source made the active and inactive calls. No cut-off for these calls is given here.
# Tests used:
# [1] = Clearance in female Balb/c mouse at 1 mg/kg, iv; type: ADME, organism-based; settings: in vivo
# [2] = system: BaF3
# [3] = molecular target: Cytochrome P450 3A4 (Homo sapiens, UniProt P08684); experiment: Inhibition of CYP3A4 (unknown origin); type: ADME; settings: human
# [4] = system: BaF3; experiment: Antitumor activity against mouse BaF3 cells harboring TPR-D1228N mutant cells allografted in athymic BALB/c nude mouse at 6 mg/kg, po bid treated for 10 days relative to control; type: functional; settings: BaF3, 240 h, time 10 day, read-out: TGI
# [5] = system: Mus musculus; experiment: In vivo inhibition of MET phosphorylation in human EBC-1 cells xenografted in athymic BALB/c nude mouse at 20 to 60 mg/kg, po measured after 12 hrs post-dose; type: functional, organism-based; settings: dose 20-60 mg/kg
# [6] = system: BaF3; experiment: cells; settings: Mus musculus, BaF3, 72 h
# [7] = system: BaF3; experiment: cells; settings: Mus musculus, BaF3, 72 h; remark: listed apart in the source
# [8] = AUClast in male Sprague-Dawley rat at 10 mg/kg, po; type: ADME, organism-based; settings: in vivo
# [9] = Toxicity in athymic BALB/c nude mouse xenografted with human EBC-1 cells assessed as body weight loss at 2 to 60 mg/kg, po bid treated for 10 to 21 days; type: organism-based; settings: in vivo, dose lower 2 mg/kg, time lower 10 day, dose upper 60 mg/kg, time upper 21 day
# [10] = cells; settings: Mus musculus, BaF3/TRP-Met, 72 h
# [11] = system: Hepatocyte growth factor receptor (Homo sapiens), P08581 [Y1235D]; experiment: Inhibition of c-MET Y1235D mutant (unknown origin) at 100 nM in presence of ATP by HotSpot Kinome Selectivity analysis
# [12] = AUClast in Balb/c mouse at 10 mg/kg, po; type: ADME, organism-based; settings: in vivo
# [13] = system: BaF3; experiment: cells; settings: Mus musculus, BaF3, 72 h; remark: listed apart in the source
# [14] = system: Mus musculus; experiment: In vivo inhibition of MET phosphorylation in human LU2503 cells xenografted in athymic BALB/c nude mouse at 20 to 60 mg/kg, po measured after 12 hrs post-dose; type: functional, organism-based; settings: dose 20-60 mg/kg
# [15] = system: EBC-1; experiment: Antitumor activity against human EBC-1 cells xenografted in athymic BALB/c nude mouse at 6 mg/kg, po bid treated for 21 days relative to control; type: functional; settings: EBC-1, 504 h, time 21 day, read-out: TGI
# [16] = Half life in male Sprague-Dawley rat at 3 mg/kg, iv; type: ADME, organism-based; settings: in vivo
# [17] = molecular target: cGMP-inhibited 3',5'-cyclic phosphodiesterase 3A (Homo sapiens) (UniProt Q14432); experiment: Inhibition of PDE3A (unknown origin) at 10 uM by CEREP analysis relative to control
# [18] = Antitumor activity against human LU2503 cells xenografted in athymic BALB/c nude mouse at 2 mg/kg, po bid treated for 14 days relative to control; type: functional; settings: LU2503, 336 h, time 14 day, read-out: TGI
# [19] = Toxicity in athymic BALB/c nude mouse allografted with mouse BaF3 cells harboring TPR-D1228N mutant assessed as body weight loss at 2 to 60 mg/kg, po bid treated for 10 to 21 days; type: organism-based; settings: in vivo, dose lower 2 mg/kg, time lower 10 day, dose upper 60 mg/kg, time upper 21 day
# [20] = molecular target: Hepatocyte growth factor receptor (Homo sapiens, UniProt P08581, D1228N); experiment: Inhibition of N-terminal GST-tagged recombinant human c-MET D1228N mutant (956 to end residues) extracted from baculovirus infected Sf9 cells using 5-FAM-KKKKEEIYFFF-CONH2 as substrate preincubated for 30 mins followed by ATP addition measured after 60 mins by fluorescence-based microfluidic mobility shift assay
# [21] = system: EBC-1; experiment: Antitumor activity against human EBC-1 cells xenografted in athymic BALB/c nude mouse at 60 mg/kg, po bid treated for 21 days relative to control; type: functional; settings: EBC-1, 504 h, time 21 day, read-out: TGI
# [22] = AUCfree in dog measured for 28 days; type: ADME, Canis lupus familiaris; settings: in vivo, 672 h, time 28 day
# [23] = molecular target: hERG (Homo sapiens, UniProt Q12809); experiment: Inhibition of hERG; type: toxicity
# [24] = system: BaF3; experiment: cells; settings: Mus musculus, BaF3, 72 h; remark: listed apart in the source
# [25] = Toxicity in rat assessed as drug tolerance measured for 28 days; settings: in vivo, 672 h, time 28 day
# [26] = molecular target: T1, Alpha-2A adrenergic receptor (Homo sapiens) (UniProt P08913); experiment: Inhibition of alpha 2A adrenergic receptor (unknown origin) at 10 uM by CEREP analysis relative to control
# T1 sequence (whole entry): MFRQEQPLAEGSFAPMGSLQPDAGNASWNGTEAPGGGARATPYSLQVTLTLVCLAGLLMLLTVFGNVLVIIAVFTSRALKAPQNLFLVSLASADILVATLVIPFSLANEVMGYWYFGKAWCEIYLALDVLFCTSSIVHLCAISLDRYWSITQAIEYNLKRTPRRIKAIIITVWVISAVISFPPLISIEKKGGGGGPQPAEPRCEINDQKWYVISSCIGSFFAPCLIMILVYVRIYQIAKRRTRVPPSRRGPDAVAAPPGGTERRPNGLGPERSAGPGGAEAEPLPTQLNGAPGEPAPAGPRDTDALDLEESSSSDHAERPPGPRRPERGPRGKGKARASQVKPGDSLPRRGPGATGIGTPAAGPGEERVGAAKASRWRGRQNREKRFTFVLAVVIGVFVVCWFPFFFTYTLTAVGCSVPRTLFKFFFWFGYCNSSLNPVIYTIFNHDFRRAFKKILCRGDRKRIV
# [27] = system: BaF3; experiment: Antitumor activity against mouse BaF3 cells harboring TPR-D1228N mutant cells allografted in athymic BALB/c nude mouse at 20 mg/kg, po bid treated for 10 days relative to control; type: functional; settings: BaF3, 240 h, time 10 day, read-out: TGI
# [28] = AUCfree in rat measured for 28 days; type: ADME; settings: in vivo, 672 h, time 28 day
# [29] = system: BaF3; experiment: Antitumor activity against mouse BaF3 cells harboring TPR-D1228N mutant cells allografted in athymic BALB/c nude mouse at 60 mg/kg, po bid treated for 10 days relative to control; type: functional; settings: BaF3, 240 h, time 10 day, read-out: TGI
# Chain of Hepatocyte growth factor receptor (P08581 25-1390 D1228N limits assumed): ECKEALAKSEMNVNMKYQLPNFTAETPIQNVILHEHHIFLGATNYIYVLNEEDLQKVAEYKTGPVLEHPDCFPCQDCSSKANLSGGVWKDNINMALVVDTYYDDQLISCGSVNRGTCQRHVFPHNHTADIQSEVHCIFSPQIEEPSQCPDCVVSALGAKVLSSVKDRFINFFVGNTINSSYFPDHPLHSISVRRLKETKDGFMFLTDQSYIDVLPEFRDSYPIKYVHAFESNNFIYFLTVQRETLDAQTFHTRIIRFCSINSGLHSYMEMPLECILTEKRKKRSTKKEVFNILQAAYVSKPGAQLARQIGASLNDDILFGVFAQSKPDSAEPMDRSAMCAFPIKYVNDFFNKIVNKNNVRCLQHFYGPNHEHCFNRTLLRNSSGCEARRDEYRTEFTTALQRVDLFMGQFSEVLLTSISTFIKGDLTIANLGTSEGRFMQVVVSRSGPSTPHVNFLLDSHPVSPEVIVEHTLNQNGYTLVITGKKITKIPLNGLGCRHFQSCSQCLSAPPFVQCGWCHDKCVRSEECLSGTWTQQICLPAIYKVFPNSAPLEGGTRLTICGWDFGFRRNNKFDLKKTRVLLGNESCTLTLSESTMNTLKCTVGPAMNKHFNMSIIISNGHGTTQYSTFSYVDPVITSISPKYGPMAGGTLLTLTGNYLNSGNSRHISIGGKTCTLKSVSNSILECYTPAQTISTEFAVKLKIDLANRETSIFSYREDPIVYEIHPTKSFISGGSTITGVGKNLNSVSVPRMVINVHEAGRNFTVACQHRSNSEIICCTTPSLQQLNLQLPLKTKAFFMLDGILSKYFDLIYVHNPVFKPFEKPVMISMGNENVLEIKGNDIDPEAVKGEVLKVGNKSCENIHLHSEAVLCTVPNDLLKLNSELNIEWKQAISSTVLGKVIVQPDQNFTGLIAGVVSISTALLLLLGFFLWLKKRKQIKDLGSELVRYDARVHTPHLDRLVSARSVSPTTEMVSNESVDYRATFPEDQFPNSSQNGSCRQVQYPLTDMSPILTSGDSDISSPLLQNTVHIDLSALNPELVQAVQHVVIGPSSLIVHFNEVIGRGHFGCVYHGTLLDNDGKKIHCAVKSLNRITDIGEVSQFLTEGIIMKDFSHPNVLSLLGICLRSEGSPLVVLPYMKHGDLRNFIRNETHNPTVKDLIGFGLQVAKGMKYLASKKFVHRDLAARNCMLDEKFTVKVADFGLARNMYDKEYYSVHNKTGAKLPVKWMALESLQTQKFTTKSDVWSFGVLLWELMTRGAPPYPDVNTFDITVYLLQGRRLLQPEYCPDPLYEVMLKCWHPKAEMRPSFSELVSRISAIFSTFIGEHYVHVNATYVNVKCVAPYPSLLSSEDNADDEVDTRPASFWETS
# Chain of cGMP-inhibited 3',5'-cyclic phosphodiesterase 3A (Homo sapiens) (Q14432 whole entry): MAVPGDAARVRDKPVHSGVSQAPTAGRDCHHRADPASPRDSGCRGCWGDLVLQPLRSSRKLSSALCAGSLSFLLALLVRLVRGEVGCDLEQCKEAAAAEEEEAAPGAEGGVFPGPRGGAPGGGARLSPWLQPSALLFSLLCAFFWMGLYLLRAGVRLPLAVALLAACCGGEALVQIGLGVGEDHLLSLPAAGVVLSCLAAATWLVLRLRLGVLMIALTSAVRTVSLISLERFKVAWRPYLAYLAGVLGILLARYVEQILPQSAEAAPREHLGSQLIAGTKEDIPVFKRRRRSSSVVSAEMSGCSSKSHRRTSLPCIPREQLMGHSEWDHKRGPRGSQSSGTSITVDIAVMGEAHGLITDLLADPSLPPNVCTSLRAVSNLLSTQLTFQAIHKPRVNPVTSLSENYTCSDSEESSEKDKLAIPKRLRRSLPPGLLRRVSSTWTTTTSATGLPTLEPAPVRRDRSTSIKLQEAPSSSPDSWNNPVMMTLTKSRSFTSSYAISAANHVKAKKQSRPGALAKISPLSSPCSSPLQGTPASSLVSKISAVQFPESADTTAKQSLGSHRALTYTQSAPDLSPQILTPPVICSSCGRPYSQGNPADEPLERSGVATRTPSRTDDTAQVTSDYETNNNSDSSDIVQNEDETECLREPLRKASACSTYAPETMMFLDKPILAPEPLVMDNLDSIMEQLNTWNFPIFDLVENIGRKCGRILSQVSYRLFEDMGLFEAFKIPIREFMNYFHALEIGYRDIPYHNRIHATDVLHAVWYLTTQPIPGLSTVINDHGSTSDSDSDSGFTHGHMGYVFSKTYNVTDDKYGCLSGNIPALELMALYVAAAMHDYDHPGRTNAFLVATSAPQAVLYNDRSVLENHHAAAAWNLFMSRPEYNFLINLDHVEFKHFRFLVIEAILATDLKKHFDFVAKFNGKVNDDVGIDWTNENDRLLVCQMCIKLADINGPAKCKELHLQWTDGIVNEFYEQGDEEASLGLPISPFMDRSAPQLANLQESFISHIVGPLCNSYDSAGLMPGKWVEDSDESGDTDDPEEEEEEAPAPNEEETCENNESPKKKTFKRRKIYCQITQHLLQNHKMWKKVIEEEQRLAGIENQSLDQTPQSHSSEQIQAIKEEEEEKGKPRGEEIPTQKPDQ
# Chain of Cytochrome P450 3A4 (P08684 whole entry): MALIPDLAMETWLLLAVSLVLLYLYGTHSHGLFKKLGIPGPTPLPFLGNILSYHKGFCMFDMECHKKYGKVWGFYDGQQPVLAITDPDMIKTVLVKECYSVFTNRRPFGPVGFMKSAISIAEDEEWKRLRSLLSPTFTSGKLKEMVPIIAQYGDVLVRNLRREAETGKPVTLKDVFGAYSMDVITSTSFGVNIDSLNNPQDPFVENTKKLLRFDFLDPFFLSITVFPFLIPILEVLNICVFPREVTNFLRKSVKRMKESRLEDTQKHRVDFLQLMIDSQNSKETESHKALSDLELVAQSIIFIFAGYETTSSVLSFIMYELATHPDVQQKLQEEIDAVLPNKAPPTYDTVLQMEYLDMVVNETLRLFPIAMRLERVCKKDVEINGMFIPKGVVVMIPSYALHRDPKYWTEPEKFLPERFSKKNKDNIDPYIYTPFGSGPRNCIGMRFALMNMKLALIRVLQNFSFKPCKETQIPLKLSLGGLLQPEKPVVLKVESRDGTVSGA
# Chain of hERG (Q12809 whole entry): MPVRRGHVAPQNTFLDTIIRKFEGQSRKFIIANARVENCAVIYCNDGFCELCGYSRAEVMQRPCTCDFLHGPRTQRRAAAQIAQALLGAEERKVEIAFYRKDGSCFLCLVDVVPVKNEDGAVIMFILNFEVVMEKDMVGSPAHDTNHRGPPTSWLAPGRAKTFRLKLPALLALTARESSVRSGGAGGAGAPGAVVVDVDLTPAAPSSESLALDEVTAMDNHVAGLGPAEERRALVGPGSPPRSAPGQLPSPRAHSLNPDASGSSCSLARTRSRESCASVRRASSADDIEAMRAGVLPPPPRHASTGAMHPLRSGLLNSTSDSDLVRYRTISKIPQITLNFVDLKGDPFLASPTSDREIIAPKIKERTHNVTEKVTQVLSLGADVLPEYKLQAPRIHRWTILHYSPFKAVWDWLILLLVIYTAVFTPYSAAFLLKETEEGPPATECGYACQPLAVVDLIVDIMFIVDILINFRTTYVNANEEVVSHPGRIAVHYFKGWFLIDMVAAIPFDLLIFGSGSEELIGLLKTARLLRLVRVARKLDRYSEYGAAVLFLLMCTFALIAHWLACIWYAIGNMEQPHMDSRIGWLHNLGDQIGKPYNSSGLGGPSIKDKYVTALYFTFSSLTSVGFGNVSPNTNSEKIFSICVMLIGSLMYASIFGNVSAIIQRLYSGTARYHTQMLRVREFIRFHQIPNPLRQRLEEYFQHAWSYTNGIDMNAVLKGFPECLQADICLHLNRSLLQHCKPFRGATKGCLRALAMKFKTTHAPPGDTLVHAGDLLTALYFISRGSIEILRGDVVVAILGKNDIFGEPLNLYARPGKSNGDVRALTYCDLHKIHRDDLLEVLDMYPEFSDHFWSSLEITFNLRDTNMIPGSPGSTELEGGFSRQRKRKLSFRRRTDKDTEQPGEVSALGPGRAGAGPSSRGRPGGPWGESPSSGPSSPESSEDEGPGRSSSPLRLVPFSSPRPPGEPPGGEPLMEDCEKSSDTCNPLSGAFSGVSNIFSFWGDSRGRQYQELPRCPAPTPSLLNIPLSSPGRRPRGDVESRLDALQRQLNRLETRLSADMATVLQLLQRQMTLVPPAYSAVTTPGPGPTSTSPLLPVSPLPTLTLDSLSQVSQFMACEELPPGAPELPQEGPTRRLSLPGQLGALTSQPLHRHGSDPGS
smiles,measurement,setting,value
COc1cc2nccc(Oc3c(F)cc(NC(=O)c4cnccc4OC)cc3F)c2cc1O[C@@H](C)CO,clearance,[1],14.3 mL/min/kg
same,pEC50,[2],7.96 and 8.29
same,inhibition (INH),[3],Not_active
same,inhibition in vivo at 6 mg/kg,[4],44%
same,inhibition,[5],Active
same,pEC50,[6],8.04
same,pEC50,[7],9.15
same,AUC(0-t),[8],18600 ng·h/mL
same,Activity,[9],Non-toxic
same,pEC50,[10],7.96
same,inhibition,[11],85%
same,AUC(0-t),[12],13500 ng·h/mL
same,pEC50,[13],7.29
same,inhibition,[14],Active
same,inhibition in vivo at 6 mg/kg,[15],52%
same,half-life,[16],4.9 h
same,inhibition,[17],16%
same,inhibition in vivo at 2 mg/kg,[18],43%
same,Activity,[19],Non-toxic
same,pIC50,[20],9.70
same,inhibition in vivo at 60 mg/kg,[21],110%
same,fAUC,[22],5100 ng·h/mL
same,IC20,[23],10000 nM
same,pEC50,[24],8.49
same,Activity,[25],Non-toxic
same,inhibition,[26],6%
same,inhibition in vivo at 20 mg/kg,[27],89%
same,fAUC,[28],5100 ng·h/mL
same,inhibition in vivo at 60 mg/kg,[29],128%
